These results are taken from ChEMBL document CHEMBL2163283, “Design and synthesis of novel stiripentol analogues as potential anticonvulsants” (Eur J Med Chem, 2012).

Molecules are shown by their SMILES. Active and inactive are the calls of the source. The rule behind the calls is not given here.

Test [1] deals with Mus musculus. Nature of the test: Anticonvulsant activity in Swiss albino mouse assessed as maximal electroshock-induced seizures at 420 umol/kg, ip administered 30 mins before electroshock challenge. The format is functional, organism-based.
Test [2] deals with Mus musculus. Nature of the test: Anticonvulsant activity in Swiss albino mouse assessed as protection against subcutaneous pentylenetetrazol-induced seizures at 420 umol/kg, ip administered 30 mins before pentylenetetrazole challenge measured after 30 mins relative to stiripentol. Format: functional.
For test [3], the system named is Mus musculus. Nature of the test: Anticonvulsant activity in Swiss albino mouse assessed as protection against subcutaneous pentylenetetrazol-induced seizures at 420 umol/kg, ip administered 30 mins before pentylenetetrazole challenge measured after 30 mins. The format is functional.

As for `CC(C)(C)C1=NN(C(=O)c2ccccc2)C(c2ccc3c(c2)OCO3)C1` (racemic), in test [1], the outcome was inactive. For the same compound, the Activity was determined as 1.27% in test [2] and 66% in test [3].
